Laboratory results published in ChEMBL document CHEMBL1150112, “Enhancement of contraction of rat mesenteric artery by acteoside: role of endothelial nitric oxide” (J Nat Prod, 2002).
Activity calls are given as the source filed them.

Experiments:
Mesenteric artery [1] = experiment: Potentiation of phenylepinephrine-induced contraction in endothelium-intact Sprague-Dawley rat mesenteric artery at 30 umol/L after 30 mins; assay type: functional, tissue-based
Artery [2] = experiment: Attenuation of acetylcholine-induced vasorelaxation in endothelium-intact Sprague-Dawley rat mesenteric artery at 30 umol/L after 30 mins; assay type: functional, tissue-based
Mesenteric artery [3] = experiment: Potentiation of phenylepinephrine-induced contraction in endothelium-intact Sprague-Dawley rat mesenteric artery at 30 umol/L after 30 mins in presence of NG-nitro-L-arginine methyl ester; assay type: functional, tissue-based
Artery [4] = experiment: Change in hydroxylamine-induced vasorelaxation in endothelium-denuded Sprague-Dawley rat mesenteric artery at 30 umol/L after 30 mins; assay type: functional, tissue-based
[5] = Vasorelaxant activity in endothelium-intact Sprague-Dawley rat vascular smooth muscle at > 100 umol/L; assay type: functional
Mesenteric artery [6] = experiment: Potentiation of phenylepinephrine-induced contraction in endothelium-intact Sprague-Dawley rat mesenteric artery at 100 to 300 umol/L after 30 mins; assay type: functional, tissue-based
Artery [7] = experiment: Change in sodium nitroprusside-induced vasorelaxation in endothelium-denuded Sprague-Dawley rat mesenteric artery at 30 umol/L after 30 mins; assay type: functional, tissue-based
Mesenteric artery [8] = experiment: Potentiation of phenylepinephrine-induced contraction in endothelium-intact Sprague-Dawley rat mesenteric artery at 30 umol/L after 30 mins in presence of NG-nitro-L-arginine; assay type: functional, tissue-based
Mesenteric artery [9] = experiment: Potentiation of phenylepinephrine-induced vessel tension in endothelium-intact Sprague-Dawley rat mesenteric artery at 30 umol/L in presence of pretreated indomethacin; assay type: functional, tissue-based
Artery [10] = experiment: Attenuation of forskolin-induced vasorelaxation in endothelium-denuded Sprague-Dawley rat mesenteric artery at 30 umol/L; assay type: functional, tissue-based
Mesenteric artery [11] = experiment: Potentiation of phenylepinephrine-induced contraction in endothelium-denuded Sprague-Dawley rat mesenteric artery at 30 umol/L after 30 mins; assay type: functional, tissue-based
Mesenteric artery [12] = experiment: Potentiation of phenylepinephrine-induced contraction in endothelium-intact Sprague-Dawley rat mesenteric artery after 30 mins; assay type: functional
Mesenteric artery [13] = experiment: Increase in phenylepinephrine-induced vessel tension in endothelium-intact Sprague-Dawley rat mesenteric artery at 30 umol/L in presence of tetraethylammonium; assay type: functional, tissue-based
Mesenteric artery [14] = experiment: Enhancement of phenylepinephrine-induced contraction in endothelium-intact Sprague-Dawley rat mesenteric artery at 30 umol/L after 30 mins in presence of co-treated 1H-[1,2,4]oxadiazolo[…]quinoxalin-1-one; assay type: functional, tissue-based
Artery [15] = experiment: Change in NS 1619-induced vasorelaxation in endothelium-denuded Sprague-Dawley rat mesenteric artery at 30 umol/L; assay type: functional, tissue-based

Measured: Activity

C[C@@H]1O[C@@H](O[C@@H]2[C@@H](O)[C@H](OCCc3ccc(O)c(O)c3)O[C@H](CO)[C@H]2OC(=O)/C=C/c2ccc(O)c(O)c2)[C@H](O)[C@H](O)[C@H]1O
active: Mesenteric artery [1] | Artery [2] | [5] | Mesenteric artery [9] | Mesenteric artery [12] Dose-dependent effect
inactive: all other assays above
